This is an account of results in PubChem BioAssay (NCI).

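Where inhibition never reached the appropriate level, the endpoint shown equals the highest concentration tested. Otherwise, values were interpolated linearly from a five-concentration, 48-hour dose response in 96-well plates. GI50 is the concentration that inhibits growth by half. TGI denotes the concentration required for complete inhibition of growth.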

Holding throughout (experiment): NCI anticancer screen, dose series, 48 h
In assay [1] the test system is SK-MEL-28 melanoma.
Assay [2] relates to PC-3 prostate.
Assay [3] has as its system COLO 205 colon.
Assay [4] has as its system CAKI-1 renal.
Assay [5] has as its system HCT-116 colon.
Assay [6] deals with A549 NSCLC.
Assay [7] concerns M14 melanoma.
The subject of assay [8] is NCI-H23 lung.
For assay [9], the system named is ACHN renal.
Assay [10] has as its system MOLT-4 leukemia.

As to `Nc1ccn(C2O[C@H](CO)[C@@H](O)[C@@H]2O)c(=O)n1` (some centres not stated), the TGI in [1], in [2], in assay [3], in assay [4], in assay [5] and in assay [6] was over 100 µM each time. Further, the TGI in assay [7], in assay [8], in assay [9] and in assay [10] was over 100 µM each time. Further, the GI50 was 51.8 µM in assay [3]; 24.2 µM in assay [5]; 24.6 µM in assay [6]; 22.3 µM in [7]; 30.4 µM in assay [8]; 42.9 µM in assay [9]. In assay [10], the GI50 is 16.1 µM.
Take `CCCCC(=O)OCC1OC(n2cnc3c(=S)nc[nH]c32)C(OC(=O)CCCC)C1OC(=O)CCCC` (configuration not stated): the GI50 in assay [1] was 57.4 µM; in assay [2], 2.21 µM; in [3], 1.37 µM; in assay [4], 2.26 µM; in assay [5], 2.15 µM; in [6], over 25.3 µM. Besides, the GI50 was 0.779 µM in [7], 1.36 µM in assay [8], 2.59 µM in [9] and 5.74 µM in assay [10]. In addition, the TGI was over 100 µM in assay [1]; over 100 µM in [2]; 5.18 µM in [3]; over 100 µM in assay [4]; over 100 µM in assay [5]; over 100 µM in [6]. The TGI in assay [7] is 10.7 µM; in assay [8], over 100 µM; in assay [9], over 100 µM; in assay [10], over 100 µM.
As for `O=C1/C(=C/c2ccc(Br)cc2)C=C(c2ccccc2)N1CCc1ccccc1`, the GI50 in assay [1] is 2.75 µM; in [2] it was 1.2 µM; in [3] it was 3.26 µM; in [4], 1.23 µM; in assay [5], 0.394 µM; in assay [6] it was 1.37 µM. For the same molecule, the GI50 is 3.53 µM in assay [7], 1.69 µM in assay [8], 0.65 µM in assay [9] and 18.4 µM in assay [10]. Also, the TGI worked out at 17 µM in assay [1]; 5.06 µM in assay [2]; 27.5 µM in assay [3]; 7.6 µM in assay [4]; 11.7 µM in [5]; 11.9 µM in [6]. Further, the TGI in assay [7] is 71.8 µM; in assay [8] it was 14.6 µM; in assay [9] it was 11 µM; in assay [10] it was over 100 µM.
As for `CN1CCN(Cc2ccc(NC(=O)c3cncc(C#Cc4cnc(N)c5ccc(C#N)cc45)c3)cc2C(F)(F)F)CC1`, the GI50 in assay [1] was 0.0273 µM; in [2] it was 0.357 µM; in [3] it was 0.0178 µM; in assay [4], 0.0175 µM; in assay [5], 0.0254 µM; in [6], 0.0353 µM. Also, the GI50 is 0.0151 µM in assay [7], 0.172 µM in [8], 0.0237 µM in [9] and 0.028 µM in [10]. Further, the TGI was 0.519 µM in assay [1]; 1.37 µM in assay [2]; 0.722 µM in assay [3]; 0.206 µM in [4]; 0.672 µM in assay [5]; 0.919 µM in assay [6]. Further, the TGI was 0.258 µM in assay [7], 1.27 µM in assay [8], 0.526 µM in [9] and 1.4 µM in [10].
Take `CCOc1cccc(/C=N/NC(=O)c2ccccc2Nc2ccnc(C(F)(F)F)c2)c1O`: the GI50 is 1.37 µM in assay [1]; 0.428 µM in assay [2]; 0.347 µM in assay [3]; 0.222 µM in assay [4]; 0.336 µM in assay [5]; 1.64 µM in assay [6]. Besides, the GI50 in assay [7] was 0.661 µM; in assay [8], 1.08 µM; in assay [9], 0.271 µM; in [10] it was 0.116 µM. The TGI in assay [1] was 98.3 µM; in assay [2], over 39.1 µM; in assay [3] it was 36.9 µM; in assay [4] it was 10.5 µM; in [5], over 51.9 µM; in assay [6], over 100 µM. Further, the TGI was 2.91 µM in [7], over 64.5 µM in [8], over 67.8 µM in assay [9] and 0.459 µM in [10].
For `Cc1nn(CN2CCN(C)CC2)c(=S)n1/N=C/c1cccc2ccccc12`, the GI50 in [1] is 17 µM; in [2], 22.1 µM; in assay [3], 10.8 µM; in [4], 28.2 µM; in [5] it was 18 µM; in [6] it was 20.6 µM. For the same molecule, the GI50 in assay [7] was 18.6 µM; in assay [8] it was 21.7 µM; in [9], 20.1 µM; in assay [10], 19.1 µM. The TGI in assay [1] came to 34.3 µM; in [2] it was 64 µM; in assay [3] it was 26.6 µM; in assay [4], 73.5 µM; in assay [5], 35.6 µM; in assay [6], 46.7 µM. Also, the TGI came out at 39.3 µM in assay [7], 56.2 µM in assay [8], 38.4 µM in assay [9] and 41.5 µM in [10].
With `COc1cc(OC)cc(-c2ccc(-c3ccc(C(=N)N)o3)o2)c1`, the GI50 in assay [1] was 1.82 µM; in assay [2] it was 4.77 µM; in [3] it was 1.84 µM; in assay [4], 4.33 µM; in [5], 2.51 µM; in assay [6], 3.78 µM. The GI50 in [7] is 2.07 µM; in [8], 9.25 µM; in assay [9] it was 2.05 µM; in [10], 2.44 µM. The TGI in assay [1] came out at 3.67 µM; in assay [2], 17.5 µM; in [3], 3.79 µM; in assay [4], 16.1 µM; in assay [5] it was 6.11 µM; in assay [6], 13.3 µM. Also, the TGI in [7] was 4.36 µM; in assay [8] it was 22.3 µM; in assay [9], 4.22 µM; in assay [10], 6.7 µM.
For `O=C(O)Cn1ccc(=O)c2ccc([N+](=O)[O-])cc21`, the TGI in assay [1], in assay [2], in assay [3], in assay [4], in assay [5] and in assay [6] was over 100 µM throughout. Also, the TGI in [7], in assay [8], in [9] and in assay [10] was over 100 µM in each case.
Regarding `O=C(c1ccco1)c1nc2ccc(C(F)(F)F)cc2[n+]([O-])c1C(F)(F)F`, the GI50 in [1] is 23.5 µM; in [2], 28.7 µM; in [3], 77.8 µM; in assay [4] it was 31 µM; in [5], over 100 µM; in assay [6], 33.7 µM. Moreover, the GI50 in [7] was over 100 µM; in [8] it was 46.7 µM; in assay [9], 54.5 µM; in assay [10], over 100 µM. In addition, the TGI in [1], in assay [2], in assay [3], in assay [4], in assay [5] and in assay [6] was over 100 µM each time. In addition, the TGI in assay [7], in [8], in assay [9] and in assay [10] was over 100 µM throughout.
On to `COC(=O)CCCCN=Cc1c(O)c(O)c(C(C)C)c2cc(C)c(-c3c(C)cc4c(C(C)C)c(O)c(O)c(C=NCCCCC(=O)OC)c4c3O)c(O)c12`, for which the GI50 in assay [1] is 1.77 µM; in assay [2], 0.787 µM; in assay [3] it was 0.85 µM; in assay [4], 1.17 µM; in assay [5] it was 0.904 µM; in [6], 0.979 µM. In addition, the GI50 in [7] was 1.23 µM; in assay [8], 1.07 µM; in assay [9] it was 1.15 µM; in assay [10], 0.783 µM. Moreover, the TGI is over 32.5 µM in assay [1]; over 32.5 µM in assay [2]; 2.44 µM in assay [3]; over 32.5 µM in assay [4]; 4.98 µM in assay [5]; over 32.5 µM in [6]. Besides, the TGI in assay [7] is 13.5 µM; in assay [8], 27 µM; in assay [9], over 32.5 µM; in assay [10], 19.2 µM.
`COc1ccc(/C(=C2\O[C@@H]([C@H]3COC(C)(C)O3)[C@H]3OC(C)(C)O[C@@H]23)c2cc(OC)c(OC)c(OC)c2)cc1O`: the GI50 in assay [1] is 5.45 µM; in [2], 5.11 µM; in [3], 17.4 µM; in [4] it was 37.3 µM; in assay [5], 4.14 µM; in assay [6], 23.2 µM. Moreover, the GI50 is 2.4 µM in assay [7], 7.96 µM in [8], 9.31 µM in assay [9] and 6.93 µM in assay [10]. For the same molecule, the TGI in assay [1], in assay [2], in assay [3], in [4], in assay [5] and in [6] was over 100 µM each time. The TGI in [7] is 5.9 µM; in assay [8], 46 µM; in assay [9] it was over 100 µM; in assay [10], over 100 µM.
On to `O=C1CNCCCN2CCN(CCCNCC(=O)Nc3ccc(cc3)S(=O)(=O)c3ccc(cc3)NC(=O)CNCCCN3CCN(CCCNCC(=O)Nc4ccc(cc4)S(=O)(=O)c4ccc(cc4)N1)CC3)CC2`, for which the TGI was over 56.8 µM in assay [1]; over 100 µM in assay [2]; 96.9 µM in [3]; 99.2 µM in assay [4]; over 80.4 µM in [5]; over 100 µM in assay [6]. Besides, the TGI in [7] is over 100 µM; in assay [8], over 76.9 µM; in assay [9] it was over 61.5 µM; in assay [10], over 51 µM.
Consider `N#Cc1ccc(C#Cc2ccccc2C#CCCCCO)cc1`, for which the GI50 in assay [1] is 25.6 µM; in assay [2], 15.6 µM; in assay [3], 18.1 µM; in assay [4], 21 µM; in [5], 12.7 µM; in assay [6] it was 14.4 µM. Also, the GI50 in assay [7] is 17.3 µM; in assay [8], 17.2 µM; in assay [9] it was 19.1 µM; in assay [10], 17.8 µM. Besides, the TGI in assay [1] worked out at 53.7 µM; in assay [2] it was 28.9 µM; in assay [3] it was 34.3 µM; in [4], 39.8 µM; in [5] it was 25.3 µM; in assay [6], 27.9 µM. Besides, the TGI in [7] is 31.5 µM; in assay [8] it was 33.8 µM; in assay [9], 33.2 µM; in assay [10] it was 37.7 µM.
As to `Cc1cc(N(CCOS(C)(=O)=O)CCOS(C)(=O)=O)ccc1C=Nc1ccc(-c2nc(Cc3ccccc3)sc2C)cc1`, the TGI worked out at 35.3 µM in assay [1]; 22.1 µM in [2]; 4.76 µM in assay [3]; 9.2 µM in assay [4]; 35 µM in [5]; 21.6 µM in assay [6]. In addition, the TGI in assay [7] was 20.7 µM; in assay [8], 17.8 µM; in [9], 3.51 µM; in assay [10], 22.4 µM.
Regarding `CN(C)CCNc1cc(-c2ccccc2)nc2ccccc12`, the GI50 was 13.4 µM in [1]; 4.61 µM in [2]; 2.92 µM in assay [3]; 6.56 µM in assay [4]; 3.75 µM in assay [5]; 4.83 µM in assay [6]. For the same molecule, the GI50 was 10.3 µM in assay [7], 11.2 µM in assay [8], 4.42 µM in assay [9] and 3.27 µM in [10]. In addition, the TGI in assay [1] is 28.5 µM; in assay [2], 24.9 µM; in assay [3], 7.74 µM; in assay [4], 40.9 µM; in assay [5], 18.8 µM; in [6], 43.5 µM. The TGI stood at 24.8 µM in [7], 37.6 µM in [8], 38.9 µM in assay [9] and 11.6 µM in [10].
